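Results reflect a 48-hour exposure of cells in 96-well plates to compound at five concentrations. At the GI50, growth is halved. TGI: concentration producing complete growth inhibition.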
Columns and labels:
Assay in all cases: NCI-60 cell line screen, 48 h
CAKI-1 renal = test system: CAKI-1 renal
PC-3 prostate = test system: PC-3 prostate
NCI-H460 lung = test system: NCI-H460 lung
HOP-62 NSCLC = test system: HOP-62 NSCLC
SN12C renal = test system: SN12C renal
T-47D breast = test system: T-47D breast
UO-31 renal = test system: UO-31 renal
SW-620 colon = test system: SW-620 colon
KM12 colon = test system: KM12 colon
HCT-15 colon = test system: HCT-15 colon

Compound | GI50 (CAKI-1 renal) | TGI (CAKI-1 renal) | GI50 (PC-3 prostate) | TGI (PC-3 prostate) | GI50 (NCI-H460 lung) | TGI (NCI-H460 lung) | GI50 (HOP-62 NSCLC) | TGI (HOP-62 NSCLC) | GI50 (SN12C renal) | TGI (SN12C renal) | GI50 (T-47D breast) | TGI (T-47D breast) | GI50 (UO-31 renal) | TGI (UO-31 renal) | GI50 (SW-620 colon) | TGI (SW-620 colon) | GI50 (KM12 colon) | TGI (KM12 colon) | GI50 (HCT-15 colon) | TGI (HCT-15 colon)
CC[C@@H](C)/C=C(C)/C=C/C(=O)c1c(O)c(-c2ccc(O)cc2)cn(OC2CC(=O)CCC(C)OC(=O)CC2O)c1=O (stereo partly drawn) | 0.361 µM | 3 µM | 5.62 µM | > 91.5 µM | 0.267 µM | 2.99 µM | 0.356 µM | 12.9 µM | 0.445 µM | 13.8 µM | 0.383 µM | 15.3 µM | 0.255 µM | 1.92 µM | 0.562 µM | 16.4 µM | 1.56 µM | 14.7 µM | 0.145 µM | 15.8 µM
Cn1c(=O)c(Oc2ccc(F)cc2F)cc2cnc(NCC(C)(C)O)nc21 | > 25 µM | > 25 µM | > 25 µM | > 25 µM | > 25 µM | > 25 µM | > 25 µM | > 25 µM | > 25 µM | > 25 µM | > 25 µM | > 25 µM | > 25 µM | > 25 µM | > 25 µM | > 25 µM | > 25 µM | > 25 µM | > 25 µM | > 25 µM
CC[C@@]1(O)C(=O)OCc2c1cc1n(c2=O)Cc2c-1nc1cc(F)c(C)c3c1c2[C@@H](NC(=O)CO)CC3 | < 0.01 µM | 0.117 µM | 0.0985 µM | > 100 µM | < 0.01 µM | 1.27 µM | < 0.01 µM | 2.14 µM | < 0.01 µM |  | < 0.01 µM |  | 0.019 µM | 0.485 µM | < 0.01 µM | > 44.2 µM | 0.149 µM | > 100 µM | 0.247 µM | > 100 µM
COC1C(=O)CCC2(CO2)C1(O)C1(C)OC1CC=C(C)C (stereo not drawn) |  | > 100 µM |  | > 100 µM |  | > 100 µM |  | > 100 µM |  | > 100 µM |  | > 100 µM |  | > 100 µM |  | > 100 µM |  | > 100 µM |  | > 100 µM
Fc1ccc(Nc2nc3nonc3nc2Nc2ccc(I)cc2)cc1 | 0.251 µM | 14.7 µM | 0.181 µM | 10.7 µM | 0.312 µM | 12.4 µM | 0.344 µM | 1.92 µM | 0.26 µM | 11.2 µM | 0.228 µM | 0.892 µM | 0.156 µM | 0.858 µM | 0.387 µM | 15.6 µM | 0.332 µM | 11.4 µM | 0.302 µM | 10.5 µM
O=C(Nc1cccc(-n2cc(-c3ccncc3)c(-c3ccc(Cl)c(O)c3)n2)c1)Nc1ccc(Cl)c(Cl)c1 | 1.11 µM | 14.3 µM | 0.834 µM | > 32.5 µM | 0.993 µM | 3.57 µM | 2.08 µM | 17.6 µM | 1.31 µM | > 32.5 µM | 1.55 µM | 17.9 µM | 1.25 µM | > 32.5 µM | 1.46 µM | > 32.5 µM | 1.01 µM | 4.47 µM | 1.23 µM | 29.6 µM
COCCn1c2c([n+](Cc3cnccn3)c1C)C(=O)c1ccccc1C2=O | 2.72 µM | > 100 µM | < 0.01 µM | 0.0359 µM | 0.0208 µM | 0.112 µM | 0.0221 µM | 0.119 µM | < 0.01 µM | 0.0316 µM | 0.0246 µM | 0.153 µM | 0.844 µM | > 78.5 µM | < 0.01 µM | 0.0176 µM | 0.0376 µM | 0.557 µM | 0.251 µM | > 100 µM

From PubChem BioAssay (NCI)
